Here are results for 6 compounds from patent publication US11208387B2, “Macrocyclic broad spectrum antibiotics” (Genentech, Inc., priority 2019, dated 2021).

The test system of test [1] is isolated liver mitochondria. Briefly: Mitochondrial oxygen consumption rate (OCR) assay. The class given is biochemical, Sprague-Dawley rats. Particulars: isolated rat liver mitochondria, state 3 (S3) respiration, glutamate/malate; Table 3. The source says: Male Sprague-Dawley rats (8-10 weeks of age) were euthanized with an overdose of carbon dioxide. The liver was rapidly excised and placed in ice-cold phosphate-buffered saline (PBS) before isolation process. Mitochondria were isolated using the MitoCheck® Mitochondrial Isolation Kit (Cayman Chemical #701010, Ann Arbor, Mich.) according to manufacturer's instructions. In brief, approximately 10-14 grams of liver tissues were finely minced using a pair of scissors, and washed repeatedly with ice-cold PBS, followed by Mito Isolation Buffer. The minced tissues were homogenized with 30 ml Mito Homogenization Buffer in 40 ml dounce homogenizer and a smooth glass grinder. The homogenate was split into two clean 30 ml polycarbonate tubes and centrifuged at 1,000×g, 4° C., for 3 minutes. The supernatant was subjected to further centrifugation at 10,000×g, 4° C., for 10 minutes. The supernatant was discarded and mitochondrial pellet was suspended in Mito Isolation Buffer using a glass stirring rod and stored on ice until use. Protein concentration of mitochondria was determined using a bicinchoninic acid protein assay kit (Thermo Scientific, Waltham, Mass.).
Oxygen consumption was monitored as essentially described by Will et al., “Analysis of mitochondrial function using phosphorescent oxygen-sensitive probes,” Nature Protocols Vol. 1(6) (2006) 2563. Briefly, isolated mitochondria (50 μg mitochondrial proteins/state 3 (S3) of mitochondrial respiration for inhibitor identification, 100 μg/S2 for uncoupler identification) were incubated with compounds in 25 μl of Measurement Buffer (MB: 250 mM sucrose, 15 mM KCl, 1 mM EGTA, 5 mM MgCl2, 30 mM K2HPO4, pH 7.4) including 1% DMSO on ice for 1 hour, then mixed with 25 μl of substrate mixture including an oxygen-sensitive phosphorescent dye (MitoXpress Xtra, Agilent, Santa Clara, Calif.), glutamate (25 mM, G1626, Sigma, St. Louis, Mo.), malate (25 mM, M6413, Sigma), ADP (3.3 mM, A2754, Sigma, only for S3 of mitochondrial respiration), Fatty acid free BSA (0.1%, A0281, Sigma), and a complex II-specific inhibitor TTFA (2 μM, T27006, Sigma for the assessment of complex I-mitochondrial respiration with glutamate/malate) in a black wall/clear bottom 384-well plate. The mixtures were covered with HS mineral oil (Agilent) using the Viaflo 384-channel pipette (Integra, Hudson, N.H.). Oxygen consumption was measured for 30 min at 30° C. using a spectrofluorimeter (FLUOstar Omega, BMG Labtech, Cary, N.C.). In S3, DMSO vehicle control and antimycin A (10 μM) were used to define 0% and 100% inhibition. In S2, DMSO vehicle and FCCP (0.5-1 μM) was used to define 0% and 100% uncoupling, respectively. Area under curve typically in a range of 0-12 min (S3) or 0-24 min (S2) was used for calculations. IC50 or UC50 (uncoupling concentration), a concentration that causes 50% of inhibition or maximal (uncoupling) activation of oxygen consumption, was used to evaluate experimental quality. Data were presented as μM (per 50 μg (S3) or 100 μg (S2) mitochondrial proteins). Compounds with IC50: <100 μM (S3) and/or UC50: <200 μM (S2) were considered as high-risk on mitochondrial toxicity. Compounds with 25-50% changes in inhibition and/or uncoupling were categorized as medium-risk, since compounds with >25% changes are considered as responders.
Toxicity associated with mitochondrial dysfunction has presented a problem for promising potential antibiotics as we as other types of therapeutics. The mitochondrial oxygen consumption rate (OCR) assay is considered a reliable indicator of potential internal organ toxicity issues that may occur with powerful antibiotics. The carboxylate compounds of the invention show unexpected lower toxicity than prior art “glycine nitrile” arylomycin analogs (see, e.g., WO 2018/149419) in the mitochondrial oxygen consumption rate (OCR) assay.

Test [2] concerns Escherichia coli strain ATCC 25922. Kind of test: Serum MIC, broth micro-dilution. It is filed as cell-based. Particulars: Escherichia coli, ATCC25922; 50% v/v mouse serum in Mueller Hinton II cation adjusted Broth, 35° C., 22 hours; Table 4; read-out: E. coli 25922 Serum MIC. A digest of the protocol: (§1)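 Half mouse serum, half cation-adjusted MH II broth (v/v) served as test medium; bacteria at final OD600 0.0005 were exposed to serial 2-fold compound dilutions for 22 h, 35° C, and the MIC was determined per CLSI M07-A8.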
For orientation: Broth dilution looks for growth in wells or tubes with falling amounts of substance.

The test system of test [3] is Klebsiella pneumoniae ATCC 700603. Briefly: Serum MIC, broth micro-dilution. It is filed as cell-based. Particulars: Klebsiella pneumoniae, ATCC700603; 50% v/v mouse serum in Mueller Hinton II cation adjusted Broth, 35° C., 22 hours; Table 4; read-out: K pneumoniae 700603 Serum MIC. A digest of the protocol:
as §1

In test [4] the test system is Pseudomonas aeruginosa PA01. Briefly: Serum MIC, broth micro-dilution. Particulars: Pseudomonas aeruginosa, PA01; 50% v/v mouse serum in Mueller Hinton II cation adjusted Broth, 35° C., 22 hours; Table 4; read-out: P. aeruginosa 01 Serum MIC. The class given is cell-based. A digest of the protocol:
as §1

In test [5] the test system is Acinetobacter baumannii ATCC 17978. Briefly: Serum MIC, broth micro-dilution. The class given is cell-based. Particulars: Acinetobacter baumannii, ATCC17978, 50% v/v mouse serum in Mueller Hinton II cation adjusted Broth, 35° C., 22 hours. Put shortly: as §1
Where [6] appears, read: Table 4, read-out: A. baumanii 17978 Serum MIC.
The mark [7] stands for this setting: Table 5, read-out: Acinetobacter baumanii 17978 Serum MIC.

Each structure is given as a SMILES string. Converted amounts (≈) assume the structure as drawn. Where two headings read alike, the source gives them in different places.

On to `Cc1nc(-c2ccc(C(C)(C)C)cc2)nc(C)c1C(=O)N[C@@H](CN)C(=O)N(C)[C@@H]1C(=O)N[C@@H](C)C(=O)N[C@H](C(=O)O)Cc2ccc(OC[C@H](O)CN)c(c2)-c2cc1cc(OC[C@H](O)CN)c2O` [Example 30, (8S,11S,14S)-18-hydroxy-11-methyl-14-[methyl-[(2S)-3-amino-2-[[2-(4-tert-butylphenyl)-4,6-dimethyl-pyrimidine-5-carbonyl]amino]-propanoyl]amino]-10,13-dioxo-3,17-bis[(2R)-3-amino-2-hydroxy-propoxy]-9,12-diazatricyclo-[13.3.1.12,6]icosa-1(18),2(20),3,5,15(19), 16-hexaene-8-carboxylic acid], for which the IC50 in test [1] is above 250 µM. The MIC in test [2] amounted to 1 µM (≈ 0.928 µg/mL); in test [3], 0.75 µM (≈ 0.696 µg/mL); in test [4], 16 µM (≈ 14.8 µg/mL); in test [5] (setting [6]), 32 µM (≈ 29.7 µg/mL); in test [5] (setting [7]), 32 µM (≈ 29.7 µg/mL).

Consider `C[C@@H]1NC(=O)[C@@H](N(C)C(=O)[C@H](CCN)NC(=O)c2c(N)nc(-c3ccc(C(C)(C)C)cc3)nc2C(F)F)c2cc(OC[C@H](O)CN)c(O)c(c2)-c2cc(ccc2OC[C@H](O)CN)C[C@@H](C(=O)O)NC1=O` [Example 32, (8S,11S,14S)-18-hydroxy-11-methyl-14-[methyl-[(2S)-4-amino-2-[[2-(4-tert-butylphenyl)-4-amino-6-difluoro-methyl-pyrimidine-5-carbonyl]amino]-butanoyl]amino]-10,13-dioxo-3,17-bis[(2R)-3-amino-2-hydroxy-propoxy]-9,12-diazatricyclo-[13.3.1.12,6]icosa-1(18),2(20),3,5,15(19), 16-hexaene-8-carboxylic acid], for which the IC50 in test [1] is above 100 µM. Further, the MIC in test [2] was found to be 0.25 µM (≈ 0.245 µg/mL); in test [3], 0.25 µM (≈ 0.245 µg/mL); in test [4], 16 µM (≈ 15.7 µg/mL); in test [5] (setting [6]) it was 4 µM (≈ 3.92 µg/mL); in test [5] (setting [7]), 4 µM (≈ 3.92 µg/mL).

In test [1], `Cc1nc(-c2ccc(C(F)(F)C(C)C)cc2)nc(N)c1C(=O)N[C@@H](CNS(N)(=O)=O)C(=O)N(C)[C@@H]1C(=O)N[C@@H](C)C(=O)N[C@H](C(=O)O)Cc2ccc(OC[C@H](O)CN)c(c2)-c2cc1cc(OC[C@H](O)CN)c2O` [Example 38, (8S,11S,14S)-14-[[(2S)-2-[[4-amino-2-[4-(1,1-difluoro-2-methyl-propyl)-phenyl]-6-methyl-pyrimidine-5-carbonyl]amino]-3-(sulfamoylamino)-propanoyl]-methyl-amino]-3,17-bis[(2R)-3-amino-2-hydroxy-propoxy]-18-hydroxy-11-methyl-10,13-dioxo-9,12-diazatri-cyclo[13.3.1.12,6]icosa-1(18),2(20),3,5,15(19), 16-hexaene-8-carboxylic acid] came in with an IC50 above 100 µM. For the same compound, the MIC was 0.5 µM (≈ 0.522 µg/mL) in test [2]; 0.5 µM (≈ 0.522 µg/mL) in test [3]; 12 µM (≈ 12.5 µg/mL) in test [4]; 16 µM (≈ 16.7 µg/mL) in test [5] (setting [6]); 16 µM (≈ 16.7 µg/mL) in test [5] (setting [7]).

`Cc1nc(-c2ccc(C(C)(C)C)cc2O)nc(N)c1C(=O)N[C@@H](CCN)C(=O)N(C)[C@@H]1C(=O)N[C@@H](C)C(=O)N[C@H](C(=O)O)Cc2ccc(OC[C@H](O)CN)c(c2)-c2cc1cc(OC[C@H](O)CN)c2O` [Example 43, (8S,11S,14S)-14-[[(2S)-4-amino-2-[[4-amino-2-(4-tert-butyl-2-hydroxy-phenyl)-6-methyl-pyrimidine-5-carbonyl]amino]-butanoyl]-methyl-amino]-3,17-bis[(2R)-3-amino-2-hydroxy-propoxy]-18-hydroxy-11-methyl-10,13-dioxo-9,12-diazatricyclo-[13.3.1.12,6]icosa-1(19),2(20),3,5,15,17-hexaene-8-carboxylic acid]: the IC50 in test [1] is above 100 µM. Also, the MIC was 0.25 µM (≈ 0.24 µg/mL) in test [2]; 0.25 µM (≈ 0.24 µg/mL) in test [3]; 8 µM (≈ 7.67 µg/mL) in test [4]; 8 µM (≈ 7.67 µg/mL) in test [5] (setting [6]); 8 µM (≈ 7.67 µg/mL) in test [5] (setting [7]).

`Cc1nc(-c2ccc(C(C)(C)C)cc2O)nc(N)c1C(=O)N[C@@H](CNS(N)(=O)=O)C(=O)N(C)[C@@H]1C(=O)N[C@@H](C)C(=O)N[C@H](C(=O)O)Cc2ccc(OC[C@H](O)CN)c(c2)-c2cc1cc(OC[C@H](O)CN)c2O` [Example 44, (8S,11S,14S)-14-[[(2S)-2-[[4-amino-2-(4-tert-butyl-2-hydroxy-phenyl)-6-methyl-pyrimidine-5-carbonyl]amino]-3-(sulfamoylamino)-propanoyl]-methyl-amino]-3,17-bis[(2R)-3-amino-2-hydroxy-propoxy]-18-hydroxy-11-methyl-10,13-dioxo-9,12-diazatricyclo-[13.3.1.12,6]icosa-1(18),2(20),3,5,15(19), 16-hexaene-8-carboxylic acid] returned an IC50 in test [1] of 44 µM. Also, the MIC was 0.5 µM (≈ 0.512 µg/mL) in test [2]; 0.5 µM (≈ 0.512 µg/mL) in test [3]; 4 µM (≈ 4.1 µg/mL) in test [4]; 8 µM (≈ 8.19 µg/mL) in test [5] (setting [6]); 8 µM (≈ 8.19 µg/mL) in test [5] (setting [7]).

`Cc1nc(-c2ccc(C(C)(C)C)cc2)nc(N)c1C(=O)N[C@@H](CNS(N)(=O)=O)C(=O)N(C)[C@@H]1C(=O)N[C@@H](C)C(=O)N[C@H](C(=O)O)Cc2ccc(OC[C@H](O)CN)c(c2)-c2cc1cc(OC[C@@H](O)CN)c2O` [Example 50, (8S,11S,14S)-14-[[(2S)-2-[[4-amino-2-(4-tert-butylphenyl)-6-methyl-pyrimidine-5-carbonyl]amino]-3-(sulfamoylamino)-propanoyl]-methyl-amino]-3-[(2R)-3-amino-2-hydroxy-propoxy]-17-[(2S)-3-amino-2-hydroxy-propoxy]-18-hydroxy-11-methyl-10,13-dioxo-9,12-diazatri-cyclo[13.3.1.12,6]icosa-1(19),2(20),3,5,15,17-hexaene-8-carboxylic acid] had an IC50 in test [1] above 100 µM. For the same compound, the MIC was found to be 0.75 µM (≈ 0.756 µg/mL) in test [2]; 0.75 µM (≈ 0.756 µg/mL) in test [3]; 4 µM (≈ 4.03 µg/mL) in test [4]; 8 µM (≈ 8.06 µg/mL) in test [5] (setting [6]); 8 µM (≈ 8.06 µg/mL) in test [5] (setting [7]).

A word on the IC50: it is the concentration that gives 50% inhibition. A high value points to weaker potency. The term MIC denotes the lowest concentration found to suppress growth.
